1 compound from BindingDB's records for doi:10.1016/j.ejmech.2016.03.016 (Peking University, 2016) can be followed below.

The structures appear in SMILES notation.

The target in the assay is Neuronal acetylcholine receptor subunit alpha-7 (Homo sapiens, UniProt P36544). Kind of assay: Agonist activity at human alpha7 nAChR expressed in xenopus oocytes preincubated for 10 mins followed by acetylcholine addition by patch clamp electrophysiological assay.
Neuronal acetylcholine receptor subunit alpha-7, sequence (P36544 whole entry): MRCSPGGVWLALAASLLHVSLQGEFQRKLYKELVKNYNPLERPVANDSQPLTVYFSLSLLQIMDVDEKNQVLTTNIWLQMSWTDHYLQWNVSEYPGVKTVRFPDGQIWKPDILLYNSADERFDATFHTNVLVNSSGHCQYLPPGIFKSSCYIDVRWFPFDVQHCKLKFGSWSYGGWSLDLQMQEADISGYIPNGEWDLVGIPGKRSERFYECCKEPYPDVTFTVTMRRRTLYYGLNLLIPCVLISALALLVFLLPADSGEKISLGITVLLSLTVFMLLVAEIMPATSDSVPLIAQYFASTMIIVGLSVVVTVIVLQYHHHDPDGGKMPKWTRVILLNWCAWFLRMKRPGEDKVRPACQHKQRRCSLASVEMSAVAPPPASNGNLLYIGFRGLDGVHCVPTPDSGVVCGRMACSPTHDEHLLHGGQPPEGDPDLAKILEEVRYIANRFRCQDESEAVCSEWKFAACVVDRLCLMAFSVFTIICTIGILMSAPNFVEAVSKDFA

For `O=C(N[C@H]1CN2CCC1CC2)c1cc2cccc(Br)n2c1`, the midpoint of the response, the EC50, lay at 1780 nM.
